In one data set the test system is Vero host cells. In words: cytotoxicity against host cells in intracellular amastigote assay. As to conditions: Chlorocebus sabaeus, Vero, host cell cytotoxicity. The data set is classed as cell-based.
The subject of a further data set is HepG2 cells. Nature of the data set: general cytotoxicity assay in HepG2 cells. The data set is classed as cell-based. Conditions: Homo sapiens, HepG2, 48 h, CellTiter-Glo. The protocol:
This assay was previously described ([36]). Briefly, actively growing HepG2 cells were removed from a T-175 TC flask using 5 ml Eagle’s MEM (containing 10 % FBS, 1 % NEAA, 1 % penicillin/ streptomycin. Carbon source is D-glucose at 1 g/l) and dispersed in the medium by repeated pipetting. Seeding density was checked to ensure that new monolayers were not more than 50 % confluent at the time of harvesting. Cell suspension was added to 500 ml of the same medium at a final density of 1.2 x 10^5 cells/ml. This cell suspension was dispensed (25 μl, 3000 cells per well) into 384-well clear-bottom plates using a Multidrop Combi dispenser. Prior to addition of the cell suspension, the screening compounds (250 nl) were predispensed into the plates with an EchoH liquid handler. Plates were incubated for 48 h at 37°C, 5% CO2. After incubation, plates equilibrated at room temperature for 30 min before proceeding to develop the luminescent signal. The signal developer, CellTiter-Glo Reagent, was allowed to equilibrate at room temperature for 30 min and added to the plates ([…]) using a Multidrop Combi dispenser. Plates were left for 10 min at room temperature for stabilization and then read using a ViewLux.

A short description of data set [1]: chromatographic LogD assay. The class given is physicochemical. Conditions: reversed phase HPLC column (Gemini NX C18), pH 7.4; read-out: Chrom logD pH 7.4. The procedure: The chromatographic hydrophobicity index (CHI) values were measured using reversed phase HPLC column (50 mm × 2 mm, 3 μm Gemini NX C18, Phenomenex, U.K.) with fast acetonitrile gradient at starting mobile phase at pH 7.4. CHI values were derived directly from the gradient retention times by using a calibration line obtained for standard compounds. The CHI value approximates to the volume % organic concentration when the compound elutes. CHI was linearly transformed into ChromlogD by least-squares fitting of experimental CHI values to calculated log P (ClogP) values for over 20K research compounds using the following formula: ChromlogD = 0.0857CHI − 2.00. The average error of the assay is ±3 CHI units or ± 0.25 ChromlogD.

Data set [2] in a line: bioanalysis of blood samples from in vivo efficacy studies. On the set-up: species or system BALB/c mice. Conditions: for AUC0-7h Day 1, unbound concentrations of 4 / AUC0-7h Day 5, unbound concentrations of 4 / Cmax Day 1, unbound concentrations of 4 / Cmax Day 5, unbound concentrations of 4 / AUC0-7h Day 1, unbound concentrations of compound 3 / AUC0-7h Day 5, unbound concentrations of compound 3 / Cmax Day 1, unbound concentrations of compound 3 / Cmax Day 5, unbound concentrations of compound 3 / AUC0-7h Day 1, unbound concentrations of BNZ / AUC0-7h Day 5, unbound concentrations of BNZ / Cmax Day 1, unbound concentrations of BNZ / Cmax Day 5, unbound concentrations of BNZ: 5 days; for AUC(0-t) / Cmax: BALB/c, mouse, whole blood, po; for AUC0-7h Day 1, unbound concentrations of compound 3 / AUC0-7h Day 5, unbound concentrations of compound 3 / Cmax Day 1, unbound concentrations of compound 3 / Cmax Day 5, unbound concentrations of compound 3: 50mg/kg bid; for AUC0-7h Day 1, unbound concentrations of BNZ / AUC0-7h Day 5, unbound concentrations of BNZ / Cmax Day 1, unbound concentrations of BNZ / Cmax Day 5, unbound concentrations of BNZ: 30mg/kg qd. The protocol: Following the first daily dose on day 1 and last day of treatment, serial blood samples were taken by the tail vein from all treated mice pre-dose, then 30 minutes, 1, 2, 4, and 8 hours post-dose, mixed with two volumes of distilled water and analyzed for test compound. Quantification of compounds was performed by means of LC/MSMS and exposure parameters namely Cmax and AUClast were estimated using Phoenix 64 (Pharsight Certara).

In data set [3] the test system is intracellular T. cruzi Silvio X10/7 A1 in Vero cells. Nature of the data set: washout outgrowth assay. Conditions: for relapse day after the end of treatment: 50× EC50 for five days. The data set is classed as cell-based, Trypanosoma cruzi. The procedure: Washout outgrowth assay: Vero cells were infected overnight in T600 flasks at a multiplicity of infection (MOI) 5 with T. cruzi Silvio X10/7 A1 trypomastigotes, followed by washing of the Vero monolayer to remove free trypomastigotes. 24 hours later the monolayer was trypsinised, 5.3 x 10^6 Vero cells were plated in T75 tissue culture flasks (in 20 ml MEM-Glutamax (ThermoFisher), 1% Fetal Calf Serum (FCS)), and treatment was started. For ten-day treatments, medium with compounds was replaced after the initial 5 days. For 16 day treatments the compounds were replaced every four days. For compound washout, all medium was aspirated, and flasks were washed three times with 10 ml serum-free MEM medium followed by a final aspiration and addition of 20 ml MEM-Glutamax (ThermoFisher) supplemented with 1% FCS. The cultures were then maintained until trypomastigotes were detected by light microscopy. Medium was replaced twice weekly and prior to each medium replacement microscopic evaluation was carried out (five fields per flask) for up to 60 days post washout. Robustness of the data was confirmed by profiling multiple compounds from the pyrrolopyrimidine series in a single experiment (compounds 2,3 and 4 in Fig. 2 and Fig. S17) as well as comparing results from independent experiments (compound 2 in Fig. 2, Fig. S5 and Fig. S7).

[4] abbreviates: read-out: Vero pEC50 (converted).
Where [5] appears, read: read-out: HepG2 pEC50 (converted).
Where [6] appears, read: 4 10 mg/kg bid + BNZ 30mg/kg qd.
[7] abbreviates: 4 30 mg/kg bid + BNZ 30mg/kg qd.
The mark [8] stands for this setting: dosing group 3 + BNZ (30mg/kg qd).
Setting [9] is: dosing group BNZ+ 3 (50mg/kg bid).

Where two headings read alike, the source gives them in different places.

Regarding `COc1ccc(-c2c(C)[nH]c3nc(N)nc(C)c23)c(OC)c1` [Compound 4, 5-(2,4-Dimethoxyphenyl)-4,6-dimethyl-7H-pyrrolo[2,3-d]pyrimidin-2-amine], the EC50 with Vero host cells (read-out: Vero EC50) was more than 50 µM; in the data set with Vero host cells (setting [4]), more than 50.1 µM; in the data set with HepG2 cells (read-out: HepG2 EC50) it was 79 µM; in the data set on HepG2 cells (setting [5]), 79.4 µM. The chromatographic logD in data set [1] is 3.1. For the same compound, the “AUC0-7h Day 1, unbound concentrations of 4” value in data set [2] (setting [6]) was 2419 ± 453 ng·h/mL; in data set [2] (setting [7]), 10441 ± 1994 ng·h/mL; in data set [2] (4 50mg/kg bid alone), 16176 ± 776 ng·h/mL. The results for the “AUC0-7h Day 5, unbound concentrations of 4” value in data set [2] (setting [6]), in data set [2] (setting [7]) and in data set [2] (4 50mg/kg bid alone) were 1488 ± 292 ng·h/mL, 6773 ± 311 ng·h/mL and 17378 ± 1605 ng·h/mL, respectively. Further, the “Cmax Day 1, unbound concentrations of 4” value in data set [2] (setting [6]) came out at 496 ± 82 ng/mL; in data set [2] (setting [7]), 1931 ± 261 ng/mL; in data set [2] (4 50mg/kg bid alone) it was 2934 ± 294 ng/mL. Moreover, the “Cmax Day 5, unbound concentrations of 4” value in data set [2] (setting [6]) was found to be 650 ± 203 ng/mL; in data set [2] (setting [7]), 1577 ± 161 ng/mL; in data set [2] (4 50mg/kg bid alone), 3736 ± 628 ng/mL.
For orientation: Cmax means the highest concentration seen after dosing. With `COc1cc(F)ccc1-c1c(C)[nH]c2nc(N)nc(C)c12` [Compound 2, 5-(4-Fluoro-2-methoxyphenyl)-4,6-dimethyl-7H-pyrrolo[2,3-d]pyrimidin-2-amine], the EC50 with Vero host cells (read-out: Vero EC50) was more than 50 µM; in the data set on Vero host cells (setting [4]) it was more than 50.1 µM; with HepG2 cells (read-out: HepG2 EC50), 79 µM; in the data set with HepG2 cells (setting [5]), 63.1 µM. The “relapse day after the end of treatment” value in data set [3] is listed as 14 days. Moreover, the chromatographic logD in data set [1] came out at 3.4. For the same compound, the AUC(0-t) in data set [2] (50 mg/kg, compound 2 50mg/kg bid, 21-day study, read-out: AUC0-7h Day 1) worked out at 5280 ± 1230 ng·h/mL; in data set [2] (50 mg/kg, compound 2 50mg/kg bid, 21-day study, read-out: AUC0-7h Day 21), 8860 ± 1210 ng·h/mL; in data set [2] (100 mg/kg, compound 2 100mg/kg bid (changed to qd after day 1), 10-day study, read-out: AUC0-7h Day 1) it was 6270 ± 1140 ng·h/mL; in data set [2] (100 mg/kg, compound 2 100mg/kg bid (changed to qd after day 1), 10-day study, read-out: AUC0-7h Day 10), 11500 ± 1950 ng·h/mL. In addition, the Cmax was determined as 870 ± 196 ng/mL in data set [2] (50 mg/kg, compound 2 50mg/kg bid, 21-day study, read-out: Cmax Day 1); 1470 ± 202 ng/mL in data set [2] (50 mg/kg, compound 2 50mg/kg bid, 21-day study, read-out: Cmax Day 21); 1250 ± 236 ng/mL in data set [2] (100 mg/kg, compound 2 100mg/kg bid (changed to qd after day 1), 10-day study, read-out: Cmax Day 1); 2260 ± 315 ng/mL in data set [2] (100 mg/kg, compound 2 100mg/kg bid (changed to qd after day 1), 10-day study, read-out: Cmax Day 10).
In the case of `COc1cc(Cl)ccc1-c1c(C)[nH]c2nc(N)nc(C)c12` [Compound 3, 5-(4-Chloro-2-methoxyphenyl)-4,6-dimethyl-7H-pyrrolo[2,3-d]pyrimidin-2-amine], the EC50 was more than 50 µM with Vero host cells (read-out: Vero EC50), more than 50.1 µM in the data set with Vero host cells (setting [4]), 79 µM in the data set on HepG2 cells (read-out: HepG2 EC50) and 79.4 µM in the data set on HepG2 cells (setting [5]). Besides, the “relapse day after the end of treatment” value in data set [3] is 14 days. In data set [1], the chromatographic logD was determined as 4.2. Also, the “AUC0-7h Day 1, unbound concentrations of compound 3” value in data set [2] (setting [8]) is 2234 ± 509 ng·h/mL; in data set [2] (dosing group 3 alone), 3024 ± 619 ng·h/mL. Also, the results for the “AUC0-7h Day 5, unbound concentrations of compound 3” value in data set [2] (setting [8]) and in data set [2] (dosing group 3 alone) were 5525 ± 663 ng·h/mL and 6094 ± 870 ng·h/mL, respectively. For the same compound, the results for the “Cmax Day 1, unbound concentrations of compound 3” value in data set [2] (setting [8]) and in data set [2] (dosing group 3 alone) were 412 ± 88 ng/mL and 530 ± 95 ng/mL, respectively. Moreover, the “Cmax Day 5, unbound concentrations of compound 3” value in data set [2] (setting [8]) was found to be 977 ± 129 ng/mL; in data set [2] (dosing group 3 alone) it was 1014 ± 185 ng/mL. The AUC(0-t) in data set [2] (50 mg/kg, compound 3 50mg/kg bid, 10-day study, read-out: AUC0-7h Day 1) is 1800 ± 243 ng·h/mL; in data set [2] (50 mg/kg, compound 3 50mg/kg bid, 10-day study, read-out: AUC0-7h last day) it was 7790 ± 1560 ng·h/mL; in data set [2] (50 mg/kg, compound 3 50mg/kg bid, 20-day study, read-out: AUC0-7h Day 1) it was 2740 ± 388 ng·h/mL; in data set [2] (50 mg/kg, compound 3 50mg/kg bid, 20-day study, read-out: AUC0-7h last day), 4920 ± 479 ng·h/mL. Moreover, the Cmax turned out to be 325 ± 59 ng/mL in data set [2] (50 mg/kg, compound 3 50mg/kg bid, 10-day study, read-out: Cmax Day 1); 1250 ± 259 ng/mL in data set [2] (50 mg/kg, compound 3 50mg/kg bid, 10-day study, read-out: Cmax last day); 480 ± 69 ng/mL in data set [2] (50 mg/kg, compound 3 50mg/kg bid, 20-day study, read-out: Cmax Day 1); 810 ± 75 ng/mL in data set [2] (50 mg/kg, compound 3 50mg/kg bid, 20-day study, read-out: Cmax last day).
For `O=C(Cn1ccnc1[N+](=O)[O-])NCc1ccccc1` [Benznidazole, reference compound], the EC50 with Vero host cells (read-out: Vero EC50) was more than 50 µM; in the data set with Vero host cells (setting [4]) it was more than 50.1 µM; in the data set on HepG2 cells (read-out: HepG2 EC50), more than 100 µM; in the data set with HepG2 cells (setting [5]) it was more than 100 µM. The “relapse day after the end of treatment” value in data set [3] is 14 days. In addition, the “relapse day after compound washout” value in data set [3] (ten-day treatment) is recorded as “no relapse”. In data set [1], the chromatographic logD stood at 2.3. Besides, the “AUC0-7h Day 1, unbound concentrations of BNZ” value in data set [2] (dosing group BNZ alone) came out at 18788 ± 3214 ng·h/mL; in data set [2] (setting [9]), 15881 ± 4211 ng·h/mL. The entries for the “AUC0-7h Day 5, unbound concentrations of BNZ” value in data set [2] (dosing group BNZ alone) and in data set [2] (setting [9]) were 12583 ± 1812 ng·h/mL and 11350 ± 4513 ng·h/mL, respectively. Moreover, the “Cmax Day 1, unbound concentrations of BNZ” value turned out to be 6928 ± 1302 ng/mL in data set [2] (dosing group BNZ alone) and 5188 ± 1385 ng/mL in data set [2] (setting [9]). For the same compound, the “Cmax Day 5, unbound concentrations of BNZ” value was found to be 5230 ± 1373 ng/mL in data set [2] (dosing group BNZ alone) and 3725 ± 1302 ng/mL in data set [2] (setting [9]).
